Oc1ccc([C@@H]2COc3cc(O)ccc3C2)cc1
solubility (mole fraction)
Conditions	in isobutanol	in isopentanol	in isopropanol	in n-butanol	in n-heptane	in n-pentanol
273.15 K	0.0174	0.0226	0.0295	0.0242	0.000431	0.0235
278.15 K	0.02	0.0261	0.035	0.0284	0.00049	0.0273
283.15 K	0.0229	0.0301	0.0412	0.0331	0.000554	0.0317
288.15 K	0.0261	0.0345	0.0482	0.0384	0.000624	0.0365
293.15 K	0.0296	0.0394	0.0561	0.0442	0.000699	0.0419
298.15 K	0.0334	0.0447	0.065	0.0508	0.000781	0.0478
303.15 K	0.0376	0.0506	0.0749	0.0581	0.00087	0.0544
308.15 K	0.0421	0.057	0.086	0.0661	0.000964	0.0616
313.15 K	0.047	0.0639	0.0982	0.0749	0.00107	0.0695
318.15 K	0.0523	0.0715	0.112	0.0846	0.00117	0.078
323.15 K	0.058	0.0797	0.127	0.0951	0.00129	0.0874
328.15 K	0.0641	0.0885	0.143	0.107	0.00141	0.0975
333.15 K	0.0706	0.098	0.161	0.119	0.00155	0.108

From BigSolDB 2.1
